Results reported in article PMC6287599, “2,6-Bis(2-Benzimidazolyl)Pyridine (BBP) Is a Potent and Selective Inhibitor of Small Conductance Calcium-Activated Potassium (SK) Channels” (Frontiers in Pharmacology, 2018).
“Also recorded” adds a separate entry of the source.

What was measured:
[1] = target: T1, hIK (Homo sapiens, UniProt O15554); assay: Manual whole cell patch clamp, HEK293 transiently transfected with hIK; assay type: cell-based; conditions: BBP 1 μM, n = 6
T1 construct: expressed in transfected cells; host or cells: HEK293 (transient, co-transfected with eGFP)

[2] = target: hSK1 (Homo sapiens, UniProt Q92952); assay: Manual whole cell patch clamp, HEK293 transiently transfected with hSK1; assay type: cell-based; conditions: BBP 1 μM, compared to positive control bicuculline methiodide 100 μM, n = 6, read-out: Inhibition of hSK1 current
Description: (§1) HEK293 cells were transiently co-transfected with the plasmid of interest (hBK, hSK1, hSK2, hSK3 WT, rSK3 H491N, or hIK) and eGFP using standard Lipofectamine™ 2000 (Thermo Fisher Scientific, Waltham, Massachussets, USA) transfection protocols. After transfection, cells were incubated overnight before the experiments.
(§2) Manual patch clamp experiments were performed at room temperature in the whole cell configuration with a HEKA EPC9 amplifier and the Patchmaster software (HEKA Elektronik, Ludwigshafen, Germany). All currents were elicited every 2 s using an incremental 200 ms voltage-ramp protocol starting at −80 mV and finishing at +80 mV from a holding potential of 0 mV. […] Currents were measured using the same solutions as the ones used for automated patch clamp, with symmetrical potassium concentrations and a free intracellular calcium concentration of 400 nM. […]
(§3) To assess the effect of BBP on other calcium-activated potassium channels (hBK, hSK3 WT, rSK3 H491N, and hIK), each individual current was first normalized to its cell size using membrane's capacitance (pA/pF) before statistical analysis. […] Statistical significance between saline and the effect of both BBP and the corresponding reference compound was determined for each channel using one-way ANOVA analysis. […]

[3] = target: hSK2 (Homo sapiens, UniProt Q9H2S1); assay: Manual whole cell patch clamp, HEK293 transiently transfected with hSK2; assay type: cell-based; conditions: BBP 1 μM, compared to positive control bicuculline methiodide 100 μM, n = 5, read-out: Inhibition of hSK2 current
Description: as §1, §2, §3

[4] = target: hERG channel (Homo sapiens, UniProt Q12809); assay: Automated patch clamp, stable CHO cell line expressing hERG; assay type: cell-based; conditions: BBP 10 μM, automated patch clamp, CHO, n = 5
Description: (§4) Three different stable HEK293 cell lines expressing hSK1, hSK2 or hSK3 (NeuroSearch A/S, Ballerup, Denmark) and a CHO stable cell line expressing hERG (University of Copenhagen, Copenhagen, Denmark) were used for automated patch clamp. These cells were cultivated and prepared as previously described (Skarsfeldt et al., [2016]).
(§5) Automated patch clamp (QPatch 16, Sophion, Denmark) on SK-expressing HEK293 cell lines was conducted as previously described (Simó-Vicens et al., [2017b]). Briefly, SK currents were elicited by voltage-ramps starting at −80 mV and finishing at +80 mV from a holding potential of 0 mV. Extracellular solution contained 0.1 mM CaCl2, 3 mM MgCl2, 154 mM KCl, 10 mM HEPES and 10 mM glucose with pH 7.4. Intracellular solution for SK experiments contained 8.106 mM CaCl2 (final free calcium concentration of 400 nM), 1.167 mM MgCl2, 10 mM EGTA, 154 mM KCl, 10 mM HEPES, 31.25/ 10 mM KOH/EGTA and 15 mM KOH with pH 7.2. […]
as §3

[5] = target: hERG channel (against SK channel subtypes hSK1, hSK2, hSK3) (Homo sapiens, UniProt Q12809); assay: as above; assay type: cell-based; conditions: human, CHO cells stably expressing hERG
Description: as §4, §5, §3

[6] = test system: all SK channel subtypes; assay: Manual patch clamp, summary over all SK channel subtypes; assay type: cell-based, human; conditions: BBP 1 μM
Description: as §1, §2, §3

Chain of hERG channel (Q12809 whole entry): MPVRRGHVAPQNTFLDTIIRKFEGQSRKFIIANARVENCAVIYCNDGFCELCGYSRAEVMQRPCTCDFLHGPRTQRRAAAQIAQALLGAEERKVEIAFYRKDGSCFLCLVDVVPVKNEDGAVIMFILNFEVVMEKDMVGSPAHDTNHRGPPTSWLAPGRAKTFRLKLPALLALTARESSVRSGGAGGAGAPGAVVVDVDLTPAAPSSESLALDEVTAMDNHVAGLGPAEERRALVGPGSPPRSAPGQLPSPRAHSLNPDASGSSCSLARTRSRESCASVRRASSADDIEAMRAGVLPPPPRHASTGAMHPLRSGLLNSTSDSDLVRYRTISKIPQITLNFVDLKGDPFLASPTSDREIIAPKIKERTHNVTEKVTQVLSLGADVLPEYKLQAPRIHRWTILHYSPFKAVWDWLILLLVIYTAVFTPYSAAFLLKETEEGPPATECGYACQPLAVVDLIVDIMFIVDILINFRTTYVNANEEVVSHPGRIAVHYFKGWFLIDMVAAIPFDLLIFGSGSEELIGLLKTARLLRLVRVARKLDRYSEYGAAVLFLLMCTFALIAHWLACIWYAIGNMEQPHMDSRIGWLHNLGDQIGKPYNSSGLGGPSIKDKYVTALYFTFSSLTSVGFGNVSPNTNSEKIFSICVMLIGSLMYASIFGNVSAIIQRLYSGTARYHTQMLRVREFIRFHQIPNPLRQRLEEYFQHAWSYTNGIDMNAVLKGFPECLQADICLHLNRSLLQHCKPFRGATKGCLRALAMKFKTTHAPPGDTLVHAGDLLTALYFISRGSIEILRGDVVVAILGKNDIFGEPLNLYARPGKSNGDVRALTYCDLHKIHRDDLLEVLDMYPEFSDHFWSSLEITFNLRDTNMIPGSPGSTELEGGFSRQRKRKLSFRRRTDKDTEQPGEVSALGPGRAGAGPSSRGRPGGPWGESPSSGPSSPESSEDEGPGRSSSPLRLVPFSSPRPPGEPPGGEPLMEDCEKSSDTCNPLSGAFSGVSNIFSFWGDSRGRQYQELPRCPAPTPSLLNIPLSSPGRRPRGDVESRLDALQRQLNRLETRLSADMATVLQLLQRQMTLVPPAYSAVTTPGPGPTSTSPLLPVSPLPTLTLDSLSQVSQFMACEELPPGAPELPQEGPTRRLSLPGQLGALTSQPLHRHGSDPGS
Chain of hERG channel (against SK channel subtypes hSK1, hSK2, hSK3) (Q12809 whole entry): as above

- inhibition at 1 µM [2]: 93.7 ± 1.6%
- inhibition at 1 µM [3]: 94.8 ± 2.1%
SMILES: c1cc(-c2nc3ccccc3[nH]2)nc(-c2nc3ccccc3[nH]2)c1 [BBP, 2,6-Bis(2-benzimidazolyl)pyridine]
- Effect on hIK current [1]: did not have any effect; also recorded: remained unaffected; also recorded: not affected
- Reduction of hERG current [4]: 19 ± 3%
- selectivity ratio [5]: 46
- Effect on all SK currents (in words) [6]: totally inhibited
- Voltage dependence of inhibition (−80 vs +80 mV) [6]: no significant differences
